# From PubChem BioAssay AID330 (DTP/NCI, 2004)
# Several values for one entry are separate records, joined by “and”; a condition that tells them apart may be missing. Identical values can stand only once. Inconclusive results and toxic doses are left out.
# System: P388 leukemia ip, CD2F1 mice, survival T/C
# Test: NCI In Vivo Anticancer Drug Screen. Data for tumor model P388 Leukemia (intraperitoneal) in CD2F1 (CDF1) mice
# Details: endpoint: median survival time, higher = longer survival
# Method in brief: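 Mice carrying the transplanted tumor received test compound or vehicle. Survival was recorded in each group, and the value is the treated-group measurement divided by that of the vehicle-treated control group.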
# [1] = dose: 100.0 mg/kg/injection, schedule: Q04DX002 (ip), vehicle: saline with Tween-80
# [2] = dose: 200.0 mg/kg/injection, schedule: Q04DX002 (ip), vehicle: saline with Tween-80
# [3] = dose: 50.0 mg/kg/injection, schedule: Q01DX009 (ip), vehicle: saline
# [4] = dose: 100.0 mg/kg/injection, schedule: Q01DX009 (ip), vehicle: saline
# [5] = dose: 25.0 mg/kg/injection, schedule: Q04DX002 (ip), vehicle: saline with Tween-80
# [6] = dose: 50.0 mg/kg/injection, schedule: Q04DX002 (ip), vehicle: saline with Tween-80
# [7] = dose: 12.5 mg/kg/injection, schedule: Q01DX009 (ip), vehicle: Klucel (hydroxypropylcellulose) (HPC)
# [8] = dose: 25.0 mg/kg/injection, schedule: Q01DX009 (ip), vehicle: Klucel (hydroxypropylcellulose) (HPC)
# [9] = dose: 50.0 mg/kg/injection, schedule: Q01DX009 (ip), vehicle: Klucel (hydroxypropylcellulose) (HPC)
# [10] = dose: 25.0 mg/kg/injection, schedule: Q01DX005 (ip), vehicle: Klucel (hydroxypropylcellulose) (HPC)
# [11] = dose: 60.0 mg/kg/injection, schedule: Q01DX005 (ip), vehicle: saline with Tween-80
# [12] = dose: 120.0 mg/kg/injection, schedule: Q01DX005 (ip), vehicle: saline with Tween-80
# [13] = dose: 240.0 mg/kg/injection, schedule: Q01DX005 (ip), vehicle: saline with Tween-80
# [14] = dose: 50.0 mg/kg/injection, schedule: Q01DX005 (ip), vehicle: saline with Tween-80
# [15] = dose: 100.0 mg/kg/injection, schedule: Q01DX005 (ip), vehicle: saline with Tween-80
# [16] = dose: 200.0 mg/kg/injection, schedule: Q01DX005 (ip), vehicle: saline with Tween-80
# [17] = dose: 50.0 mg/kg/injection, schedule: Q01DX005 (ip), vehicle: saline
# [18] = dose: 100.0 mg/kg/injection, schedule: Q01DX005 (ip), vehicle: saline
# [19] = dose: 200.0 mg/kg/injection, schedule: Q01DX005 (ip), vehicle: saline
# [20] = dose: 100.0 mg/kg/injection, schedule: Q01DX009 (ip), vehicle: Klucel (hydroxypropylcellulose) (HPC)
# [21] = dose: 200.0 mg/kg/injection, schedule: Q01DX009 (ip), vehicle: Klucel (hydroxypropylcellulose) (HPC)
# [22] = dose: 6.25 mg/kg/injection, schedule: Q04DX002 (ip), vehicle: saline with Tween-80
# [23] = dose: 12.5 mg/kg/injection, schedule: Q04DX002 (ip), vehicle: saline with Tween-80
compound,measurement,setting,value
CSCC1(C)OC(c2ccccc2)=Nc2ccccc21 (configuration not stated),T/C,[1],97 % of control
same,T/C,[2],98 % of control
same,T/C,"dose: 400.0 mg/kg/injection, schedule: Q04DX002 (ip), vehicle: saline with Tween-80",106 % of control
CCN(CC)CCOCCC1(C)Oc2ccc(Cl)cc2O1 (configuration not stated),T/C,[3],93 % of control
same,T/C,[4],93 % of control
O=C1CCCC2=C1c1cc3c(cc1CCN2)OCO3,T/C,[5],101 % of control
same,T/C,[6],96 % of control
same,T/C,[1],94 % of control and 97 % of control
c1ccc(N=NC(c2ccccc2)(c2ccccc2)c2ccccc2)cc1,T/C,"dose: 6.25 mg/kg/injection, schedule: Q01DX009 (ip), vehicle: Klucel (hydroxypropylcellulose) (HPC)",110 % of control
same,T/C,[7],110 % of control
same,T/C,[8],99 % of control
same,T/C,[9],107 % of control
Cc1cc(C(=O)Nc2ccc(NC3=NCCN3)cc2)c(C)cc1C(=O)Nc1ccc(NC2=NCCN2)cc1,T/C,"dose: 12.5 mg/kg/injection, schedule: Q01DX005 (ip), vehicle: Klucel (hydroxypropylcellulose) (HPC)",101 % of control
same,T/C,[10],106 % of control
COCCCN(Cc1cc(OC)c(OC)c(OC)c1)C(=S)Nc1cccc(Cl)c1,T/C,[3],92 % of control
same,T/C,[4],90 % of control
same,T/C,"dose: 200.0 mg/kg/injection, schedule: Q01DX009 (ip), vehicle: saline",94 % of control
COc1nc(C(Cl)(Cl)Cl)c(Cl)c(OC)c1Cl,T/C,"dose: 17.8 mg/kg/injection, schedule: Q01DX005 (iv), vehicle: other",108 % of control
same,T/C,[10],114 % of control and 115 % of control
same,T/C,"dose: 26.7 mg/kg/injection, schedule: Q01DX005 (ip), vehicle: other",111 % of control and 121 % of control
same,T/C,"dose: 26.7 mg/kg/injection, schedule: Q01DX005 (iv), vehicle: other",109 % of control
same,T/C,"dose: 40.0 mg/kg/injection, schedule: Q01DX005 (ip), vehicle: Klucel (hydroxypropylcellulose) (HPC)",100 % of control and 102 % of control
same,T/C,"dose: 60.0 mg/kg/injection, schedule: Q01DX005 (ip), vehicle: Klucel (hydroxypropylcellulose) (HPC)",105 % of control and 107 % of control
same,T/C,"dose: 60.0 mg/kg/injection, schedule: Q01DX005 (iv), vehicle: other",107 % of control
same,T/C,"dose: 90.0 mg/kg/injection, schedule: Q01DX005 (ip), vehicle: other",171 % of control
same,T/C,"dose: 134.0 mg/kg/injection, schedule: Q01DX005 (ip), vehicle: Klucel (hydroxypropylcellulose) (HPC)",150 % of control
same,T/C,"dose: 135.0 mg/kg/injection, schedule: Q01DX005 (ip), vehicle: Klucel (hydroxypropylcellulose) (HPC)",106 % of control
same,T/C,"dose: 135.0 mg/kg/injection, schedule: Q01DX005 (ip), vehicle: other",196 % of control and 207 % of control
same,T/C,"dose: 202.3 mg/kg/injection, schedule: Q01DX005 (ip), vehicle: Klucel (hydroxypropylcellulose) (HPC)",105 % of control
same,T/C,"dose: 303.3 mg/kg/injection, schedule: Q01DX005 (ip), vehicle: Klucel (hydroxypropylcellulose) (HPC)",168 % of control
Cc1cccnc1NS(=O)(=O)c1ccccc1,T/C,"dose: 100.0 mg/kg/injection, schedule: Q01DX009 (ip), vehicle: saline with Tween-80",100 % of control
same,T/C,"dose: 200.0 mg/kg/injection, schedule: Q01DX009 (ip), vehicle: saline with Tween-80",100 % of control
same,T/C,"dose: 400.0 mg/kg/injection, schedule: Q01DX009 (ip), vehicle: saline with Tween-80",100 % of control
COC(=O)Nc1cn2nc(C)sc2n1,T/C,[11],99 % of control
same,T/C,[12],94 % of control
same,T/C,[13],91 % of control
CCOC(=O)CC1=NC(=Nc2ccc(Cl)c(Cl)c2)SC1,T/C,[14],103 % of control
same,T/C,[15],104 % of control
same,T/C,[16],100 % of control
CC1CCC[N-]C1.CC1CCC[N-]C1.CC1CCC[N-]C1.CC1CCC[N-]C1.[Cl][Rh][Cl] (configuration not stated),T/C,"dose: 1.5 mg/kg/injection, schedule: Q01DX009 (ip), vehicle: saline",122 % of control
same,T/C,"dose: 6.0 mg/kg/injection, schedule: Q01DX009 (ip), vehicle: saline",152 % of control
Nc1nnc2nc(C(C(=O)c3ccc(O)cc3O)c3nc4nnc(N)n4[nH]c3=O)c(=O)[nH]n12,T/C,[11],102 % of control
same,T/C,[12],98 % of control
same,T/C,[13],104 % of control
CN1C2CCC1C(CO)C(O)C2 (configuration not stated),T/C,[17],98 % of control
same,T/C,[18],103 % of control
same,T/C,[19],107 % of control
CC1CCCC2C(c3ccccc3)OCN12 (configuration not stated),T/C,[17],108 % of control
same,T/C,[18],111 % of control
same,T/C,[19],109 % of control
NC(=S)NNC(=O)c1ccc([N+](=O)[O-])cc1,T/C,[8],100 % of control
same,T/C,[9],105 % of control
same,T/C,[20],99 % of control
same,T/C,[21],96 % of control
COC(=O)c1csc(-c2ccc(CO)o2)n1,T/C,[14],105 % of control
same,T/C,[15],98 % of control
same,T/C,[16],93 % of control
Nc1ncnc2c1ncn2C[c-]1[c-][c-][c-][c-]1.[Fe].[c-]1[c-][c-][cH-][c-]1,T/C,"dose: 50.0 mg/kg/injection, schedule: Q01DX005 (ip), vehicle: Klucel (hydroxypropylcellulose) (HPC)",94 % of control
same,T/C,"dose: 100.0 mg/kg/injection, schedule: Q01DX005 (ip), vehicle: Klucel (hydroxypropylcellulose) (HPC)",94 % of control
same,T/C,"dose: 200.0 mg/kg/injection, schedule: Q01DX005 (ip), vehicle: Klucel (hydroxypropylcellulose) (HPC)",100 % of control
CC(SCCCCCCCCCCCCSC(C)C(=O)O)C(=O)O (configuration not stated),T/C,[14],106 % of control
same,T/C,[15],97 % of control
same,T/C,[16],100 % of control
O=C1NC(CO)C(=O)N2CCCC12 (configuration not stated),T/C,"dose: 12.5 mg/kg/injection, schedule: Q01DX009 (ip), vehicle: saline",100 % of control
same,T/C,"dose: 25.0 mg/kg/injection, schedule: Q01DX009 (ip), vehicle: saline",99 % of control
same,T/C,[3],99 % of control
CC(=O)N(O)c1ccc(Cl)cc1,T/C,[5],100 % of control
same,T/C,[6],102 % of control
same,T/C,[1],100 % of control
same,T/C,[2],105 % of control
Cc1cc(C)n(C(N)=NC(=O)c2ccccc2)n1,T/C,[9],104 % of control and 106 % of control
same,T/C,[20],100 % of control
same,T/C,[21],109 % of control
O/N=C(\C[P+](c1ccccc1)(c1ccccc1)c1ccccc1)c1ccccc1,T/C,[7],100 % of control
same,T/C,[8],99 % of control
same,T/C,[9],102 % of control
c1ccc(-c2nc3cccnc3s2)cc1,T/C,[11],101 % of control
same,T/C,[12],101 % of control
same,T/C,[13],104 % of control
CN=C(N)N/N=C(\C)c1ccc2c(c1)-c1ccc(/C(C)=N/NC(N)=NC)c3cccc-2c13,T/C,"dose: 3.12 mg/kg/injection, schedule: Q04DX002 (ip), vehicle: saline with Tween-80",104 % of control
same,T/C,[22],99 % of control
same,T/C,[23],100 % of control
O=C(NC(Cc1ccc([N+](=O)[O-])cc1)C(=O)O)c1ccccc1 (configuration not stated),T/C,"dose: 25.0 mg/kg/injection, schedule: Q01DX009 (ip), vehicle: other",104 % of control
same,T/C,"dose: 50.0 mg/kg/injection, schedule: Q01DX009 (ip), vehicle: other",110 % of control
same,T/C,"dose: 100.0 mg/kg/injection, schedule: Q01DX009 (ip), vehicle: other",104 % of control
Cn1ccnc1C[Si](C)(C)C,T/C,"dose: 45.5 mg/kg/injection, schedule: Q01DX005 (ip), vehicle: saline with Tween-80",99 % of control
same,T/C,"dose: 91.0 mg/kg/injection, schedule: Q01DX005 (ip), vehicle: saline with Tween-80",107 % of control
same,T/C,"dose: 182.0 mg/kg/injection, schedule: Q01DX005 (ip), vehicle: saline with Tween-80",108 % of control
CN1CCN=C1c1ccc(NC(=O)c2ccc(C(=O)Nc3ccc(C4=NCCN4C)cc3)c(Cl)c2)cc1,T/C,"dose: 1.56 mg/kg/injection, schedule: Q01DX005 (ip), vehicle: Klucel (hydroxypropylcellulose) (HPC)",104 % of control
same,T/C,"dose: 3.12 mg/kg/injection, schedule: Q01DX005 (ip), vehicle: Klucel (hydroxypropylcellulose) (HPC)",109 % of control
same,T/C,"dose: 6.25 mg/kg/injection, schedule: Q01DX005 (ip), vehicle: Klucel (hydroxypropylcellulose) (HPC)",118 % of control and 123 % of control
CC1Cn2c(nnc2-c2ccccc2O)S1 (configuration not stated),T/C,[11],96 % of control
same,T/C,[12],100 % of control
same,T/C,[13],101 % of control
COc1cc(C[C@@H](CO)[C@H](CO)Cc2ccc3c(c2)OCO3)cc(OC)c1OC,T/C,[22],101 % of control
same,T/C,[23],101 % of control
same,T/C,[5],93 % of control
